{"source": "patent US20110251220A1", "about": "“Pharmaceutical compositions comprising gamma secretase modulators” (priority 2008, published 2011)", "assay_type_in_all_cases": "cell-based, human", "key": {"[1]": {"tested_on": "LP-1 cells", "assay": "Proliferation assay (CellTiter-Glo), LP-1", "details": "LP-1, 48 h treatment", "method": "Human MM cell lines used were as follows: NCI-H929, OPM-2, LP-1, RPMI-8226, U266 (DSMZ, Braunschweig, Germany). Cell lines were cultured in RPMI 1640 medium (Biochrom, Berlin, Germany) supplemented with 10% heat-inactivated fetal calf serum (FCS, Gibco, Karlsruhe, Germany), 1 mM sodium pyruvate and 100 units/ml penicillin and 100 μg/ml streptomycin (Gibco). Human osteoclasts were obtained as described in the reference of Zavrski I, Krebbel H, Wildemann B, et al. Proteasome inhibitors abrogate osteoclast differentiation and osteoclast function. Biochem Biophys Res Commun. 2005; 333:200-205. Briefly, peripheral blood mononuclear cells (PBMC) were isolated from whole blood of healthy volunteers, using a Ficoll-Hypaque density gradient. The adherent fraction of the isolated mononuclear cells was cultured for 21 days in MEM medium (Sigma-Aldrich Chemie, Taufkirchen, Germany) supplemented with 10% FCS, 100 U/ml penicillin, 100 μg/ml streptomycin, 50 ng/ml M-CSF, and 25 ng/ml RANKL (osteoclastogenic medium), before coculture experiments and treatment with the inventive compounds started. […]\nFor assaying proliferation/viability of cells CellTiter-Glo Luminescent Cell Viability Assay (Promega, Mannheim, Germany) was used. In this assay the number of viable cells at a given time point is determined by quantification of ATP present, which serves as a measure of metabolically active cells. […]"}, "[2]": {"tested_on": "tartrate resistant acid phosphatase-5 (TRAP5)", "assay": "TRAP5 mRNA expression in OCL (quantitative RT-PCR)", "details": "OCL after coculture with OPM-2", "method": "In osteoclast coculture experiments, OPM-2 cells (1×10^6 cells) were added to osteoclasts in 60 mm dishes (4×10^6 cells per dish) in 3 ml MEM medium supplemented with 10% FCS, 100 U/ml penicillin, 100 μg/ml streptomycin. GSI15 (30 μM, 60 μM) or DMSO (equivalent to 60 μM) as solvent control were added to each well (daily treatment). After 48 h, 0.5 ml OPM-2 cell suspension were harvested per well and subjected to AnnexinV-FITC/PI staining. Remaining OPM-2 cells were harvested and lysed for either RNA or protein preparation. The monolayer of osteoclasts was washed twice with ice-cold PBS and then lysed for either RNA or protein preparation directly on the plate.\nQuantitative real-time reverse transcription-PCR (RT-PCR) analysis was performed using the following primer/probe sets: human Hes-1 (forward—[…], reverse—[…], probe—FAM-[…]-TAMRA) human TRAP5 (forward—[…], reverse—[…], probe FAM-[…]-TAMRA), human beta2-microglobulin (forward—ccc cca ctg aaa aag atg ag, reverse—atc caa tcc aaa tgc ggc, probe—FAM-CCTGCCGTGTGAACCATGTGACTTT-TAMRA) served as normalizer. […] For the RT-PCR reaction SuperScript™ III Platinum® One-Step Quantitative RT-PCR System (Invitrogen, Karlsruhe, Germany) was used. 50 ng total RNA were used per reaction, each RNA sample was analyzed in three replicates. […] Normalized mRNA expression data were then calculated as values relative to the respective untreated sample."}, "[3]": {"tested_on": "OBL", "assay": "Viability assay, OBL", "method": "For assaying proliferation/viability of cells CellTiter-Glo Luminescent Cell Viability Assay (Promega, Mannheim, Germany) was used. In this assay the number of viable cells at a given time point is determined by quantification of ATP present, which serves as a measure of metabolically active cells. The assay was carried out according to manufacturer's protocol. Briefly, cells were plated in 96-well plates at 10,000 cells per well in 100 μl medium and treated with indicated amounts of GSI15, with DMSO as solvent control or left untreated. Each treatment was done in four independent replicates in different wells. 24 h and 48 h after start of treatment 30 μl per well were transferred into an opaque-walled plate and lysed using CellTiter-Glo solution. Luminescence was recorded and integrated for two seconds per well. Average values were calculated and normalized to the respective untreated sample."}}, "data": [{"smiles": "CC(C)c1ccc(S(=O)(=O)Nc2cccnc2Oc2ccc(Cl)cc2)cc1", "note": "[Example 1, N-(2-(4-chlorophenoxy)pyridin-3-yl)-4-isopropylbenzenesulfonamide]", "values": [{"measurement": "concentration of maximum effect on proliferation", "setting": "[1]", "value": 60, "unit": "µM"}, {"measurement": "proliferation", "setting": "[1]", "value": "dose-dependent reduction of proliferation"}, {"measurement": "TRAP5 mRNA expression", "setting": "[2]", "value": "completely blocked the upregulation of TRAP5 mRNA expression"}, {"measurement": "viability", "setting": "[3]", "value": "no difference between untreated and GSI15 treated"}]}]}
